# Biological target: T1, hCRTH2 (Homo sapiens, UniProt Q9Y5Y4)
# T1 construct: expressed in transfected cells; host or cells: HEK (human embryonic kidney) cells expressing hCRTH2; membrane preparation
# T1 sequence (Q9Y5Y4 1-395): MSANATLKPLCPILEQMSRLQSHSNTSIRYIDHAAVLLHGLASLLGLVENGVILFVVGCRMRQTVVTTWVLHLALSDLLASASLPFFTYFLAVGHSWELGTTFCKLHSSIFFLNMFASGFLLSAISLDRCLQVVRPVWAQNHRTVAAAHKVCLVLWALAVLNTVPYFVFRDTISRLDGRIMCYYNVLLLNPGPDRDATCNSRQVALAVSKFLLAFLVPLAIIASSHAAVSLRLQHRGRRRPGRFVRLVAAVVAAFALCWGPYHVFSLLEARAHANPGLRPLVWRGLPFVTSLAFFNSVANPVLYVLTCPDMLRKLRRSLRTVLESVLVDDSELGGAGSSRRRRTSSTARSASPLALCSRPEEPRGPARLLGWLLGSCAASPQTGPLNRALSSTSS
# Experiment: Radioligand binding assay ([3H]PGD2 competition, HEK-hCRTH2 membranes)
# Settings: [3H]PGD2 binding
# Protocol: Biological Assays Radioligand Binding Assay.
# Radioligand binding assays were performed at room temperature in 50 mM Tris-HCl pH 7.4, 1 mM EDTA containing 2 mM MnCl2 and 3.0 nM [^3H]PGD2 (New England Nuclear, Boston, Mass.) (171 Ci mmol^−1), in a final volume of 0.2 mL. Competing ligands were diluted in dimethylsulfoxide (Me2SO) that was kept constant at 1% (v/v) of the final incubation volume. The reaction was initiated by the addition of 8-20 μg of membrane protein prepared from a human embryonic kidney (HEK)-hCRTH2 cell line. Total and non-specific binding were determined in the absence and the presence of 10 μM PGD2, respectively. […] The reaction was routinely conducted for 60 min at room temperature and terminated by rapid filtration through prewetted (0.3% polyethyleneimine) 96-well printed Filtermate™ (Wallac) using a Tomtec® harvester (Hamden, Conn.). After washing with cold buffer, the filter was dried for 2 minutes in microwave, and Meltilex Scintillator sheet (Wallac) was melted on for 2 min. The radioactivity was measured with Betaplate model 1205 (Wallac).
Structure (SMILES),Ki (rated A-E (Table A)),Ki (values in text)
"O=C(O)CCCCc1nc2cc(C(=O)Nc3ccccc3F)ccc2nc1-c1ccc(F)cc1 [5P, 3-(4-fluorophenyl)-7-[[(2-fluorophenyl)amino]carbonyl]-2-quinoxalinepentanoic acid]",201 to 700 nM,266 nM
"CN(C)C(=O)c1ccc2nc(-c3ccc(F)cc3)c(CCCCC(=O)O)nc2c1 [5Q, 7-[(dimethylamino)carbonyl]-3-(4-fluorophenyl)-2-quinoxalinepentanoic acid]",20.1 to 200 nM,
"CC(C)NC(=O)c1ccc2nc(-c3ccc(F)cc3)c(CCCCC(=O)O)nc2c1 [5R, 3-(4-fluorophenyl)-7-[[(1-methylethyl)amino]carbonyl]-2-quinoxalinepentanoic acid]",2.1 to 20 nM,
"O=C(O)CCCCc1nc2cc(C(=O)N3CCC3)ccc2nc1-c1ccc(F)cc1 [5S, 7-(1-azetidinylcarbonyl)-3-(4-fluorophenyl)-2-quinoxalinepentanoic acid]",2.1 to 20 nM,
"O=C(O)CCCCc1nc2cc(C(=O)C3CC3)ccc2nc1-c1ccccc1 [6G, 7-(cyclopropylcarbonyl)-3-phenyl-2-quinoxalinepentanoic acid]",0.1 to 2 nM,0.5 nM
"COC(=O)c1ccc2nc(-c3ccccc3)c(CCCCC(=O)O)nc2c1 [6H, 7-(methoxycarbonyl)-3-phenyl-2-quinoxalinepentanoic acid]",2.1 to 20 nM,
"CC(C)C(=O)c1ccc2nc(-c3ccc(F)cc3)c(CCCCC(=O)O)nc2c1 [7C, 3-(4-fluorophenyl)-7-(2-methyl-1-oxopropyl)-2-quinoxalinepentanoic acid]",0.1 to 2 nM,
C[C@@H](NC(=O)c1ccc2nc(CCCCC(=O)O)c(-c3ccccc3)nc2c1)c1ccc(F)cc1 [8G],20.1 to 200 nM,
"O=C(O)CCCOc1nc2cc(C(=O)NCc3ccc(Cl)cc3)ccc2nc1-c1ccccc1 [10C, 4-({7-[(4-chlorobenzyl)carbamoyl]-3-phenylquinoxalin-2-yl}oxy)butanoic acid]",0.1 to 2 nM,
"C[C@H](NC(=O)c1ccc2nc(-c3ccccc3)c(OCCCC(=O)O)nc2c1)c1ccccc1 [10D, 4-[(3-phenyl-7-{[(1S)-1-phenylethyl]carbamoyl}quinoxalin-2-yl)oxy] butanoic acid]",2.1 to 20 nM,
"CN(Cc1ccccc1)C(=O)c1ccc2nc(-c3ccccc3)c(OCCCC(=O)O)nc2c1 [10E, 4-({7-[benzyl(methyl)carbamoyl]-3-phenylquinoxalin-2-yl}oxy)butanoic acid]",0.1 to 2 nM,
"O=C(O)CCCOc1nc2cc(C(=O)N3CCc4ccccc4C3)ccc2nc1-c1ccccc1 [10F, 4-{[7-(3,4-dihydroiso-quinolin-2(1H)-ylcarbonyl)-3-phenylquinoxalin-2-yl]oxy} butanoic acid]",2.1 to 20 nM,
O=C(O)CCCCc1nc2cc(NC(=O)c3ccc(OC(F)(F)F)cc3)ccc2nc1-c1ccccc1 [11D],201 to 700 nM,
"O=C(O)CCCCc1nc2cc(NC(=O)c3ccc(Cl)cc3)ccc2nc1-c1ccccc1 [11E, 5-(7-{[(4-chlorophenyl)-carbonyl]amino}-3-phenyl-quinoxalin-2-yl)pentanoic acid]",201 to 700 nM,
"O=C(O)CCCCc1nc2cc(NC(=O)Cc3ccc(C(F)(F)F)cc3)ccc2nc1-c1ccccc1 [11F, 5-[3-phenyl-7-({[4-(trifluoromethyl)phenyl]acetyl}amino)quinoxalin-2-yl]pentanoic acid]",201 to 700 nM,223 nM
"C[C@H](NC(=O)c1cnc2nc(-c3ccccc3)c(CCCCC(=O)O)nc2c1)c1ccccc1 [14C, 5-(3-phenyl-7-{[(1S)-1-phenylethyl]carbamoyl}pyrido[2,3-b]pyrazin-2-yl)pentanoic acid]",20.1 to 200 nM,
"O=C(O)CCCCc1nc2cc(C(=O)NCc3ccc(Cl)cc3)cnc2nc1-c1ccccc1 [14D, 5-{7-[(4-chlorobenzyl)-carbamoyl]-3-phenylpyrido[2,3-b]pyrazin-2-yl} pentanoic acid]",2.1 to 20 nM,
"O=C(O)CCCCc1nc2cc(C(=O)NC3(c4ccccc4)CC3)cnc2nc1-c1ccccc1 [14E, 5-{3-phenyl-7-[(1-phenylcyclopropyl)carbamoyl]-pyrido[2,3-b]pyrazin-2-yl}pentanoic acid]",20.1 to 200 nM,

# Source: patent US9469615B2, “Quinoxalines and AZA-quinoxalines as CRTH2 receptor modulators” (Merck Sharp & Dohme Corp., priority 2010, dated 2016)
